According to PubChem BioAssay (NCI):
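All cell lines were grown in 96-well plates and treated with compound for 48 hours. The concentration for 50% growth inhibition is given as GI50. Definition used: TGI = concentration required for complete inhibition of growth.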

What was measured:
Test in all cases: growth of human tumour cells (NCI), 48 h
[1] = test system: SNB-75 CNS
[2] = test system: SK-MEL-28 melanoma
[3] = test system: HL-60(TB) leukemia
[4] = test system: NCI-H226 lung
[5] = test system: HCT-116 colon
[6] = test system: UACC-62 melanoma
[7] = test system: RPMI-8226 leukemia
[8] = test system: SW-620 colon
[9] = test system: UACC-257 melanoma
[10] = test system: SR leukemia

Row | SMILES | GI50 [1] [µM] | TGI [1] [µM] | GI50 [2] [µM] | TGI [2] [µM] | GI50 [3] [µM] | TGI [3] [µM] | GI50 [4] [µM] | TGI [4] [µM] | GI50 [5] [µM] | TGI [5] [µM] | GI50 [6] [µM] | TGI [6] [µM] | GI50 [7] [µM] | TGI [7] [µM] | GI50 [8] [µM] | TGI [8] [µM] | GI50 [9] [µM] | TGI [9] [µM] | TGI [10] [µM]
1 | Cc1sc2nc(-c3ccncc3)c(/C=N/N=C(N)N)n2c1C | 89.8 | > 100 | 68.9 | > 100 | 21.7 | > 100 | 26.8 | 84.6 | 27.7 | 81.8 | 17.3 | 50.3 | 28 | 78.2 | 34.7 | > 100 | – | – | –
2 | CCC[CH2][Sn]([CH2]CCC)([CH2]CCC)[O]c1ccc(Cl)cc1Cl | 0.152 | 0.445 | 0.162 | 0.302 | 0.129 | 0.415 | – | – | 0.0952 | 0.231 | 0.162 | 0.357 | – | – | 0.131 | 0.279 | 0.154 | 0.305 | –
3 | COc1ccc2c(c1)C(=O)c1c-2n(CCCN=[N+]=[N-])c(=O)c2cc(OC)c(OC)cc12 | 14.8 | 35.3 | > 100 | > 100 | 13 | 25.7 | > 100 | > 100 | 27.8 | > 100 | 21 | > 100 | 0.868 | 5.58 | > 100 | > 100 | > 100 | > 100 | –
4 | COc1ccc(S(=O)(=O)Nc2ccccc2C(=O)O)cc1 | – | > 100 | – | > 100 | – | > 100 | – | > 100 | – | – | – | > 100 | – | > 100 | – | > 100 | – | > 100 | –
5 | COc1cc(OC)cc(N(CCNC(C)C)c2ccc3ncc(-c4cnn(C)c4)nc3c2)c1 | 0.523 | 4.2 | 10.9 | 24.3 | 7.37 | 22.7 | 4.53 | 23 | 4.55 | 17 | 6.76 | 21.5 | 7.3 | 33.1 | 6.38 | 20.4 | 9.49 | 23.4 | –
6 | C=C(COC(C)=O)CC(OC(C)=O)c1ccccc1 (stereo not drawn) | – | > 100 | – | > 100 | – | > 100 | – | > 100 | – | > 100 | – | > 100 | – | > 100 | – | > 100 | – | – | –
7 | CC1CCC2(CC1)NN=c1s/c(=C\c3ccc(O)cc3)c(=O)n1N2 (stereo not drawn) | – | > 100 | – | > 100 | – | > 100 | – | > 100 | – | > 100 | – | > 100 | – | > 100 | – | > 100 | – | – | –
8 | O=C1c2ccccc2C(Br)(Br)c2ccccc21 | – | > 31.6 | – | > 31.6 | – | > 31.6 | – | > 31.6 | – | > 31.6 | – | > 100 | – | – | – | > 31.6 | – | > 100 | > 31.6
9 | Cc1ccc(SC(CCC(Sc2ccc(C)cc2)Sc2ccc(C)cc2)Sc2ccc(C)cc2)cc1 | – | > 100 | – | > 100 | – | > 100 | – | – | – | > 100 | – | > 100 | – | > 100 | – | > 100 | – | > 100 | > 100
